Bridge positions count the residues as written; N and C are the ends. Square brackets hold non-standard residues; d marks the D form. Peptide text beside a SMILES is read from it. * marks the point of attachment. ξ: configuration not given here. Phe(3-CF3) = N[C@@H](Cc1cccc(C(F)(F)F)c1)C(=O)O; Phe(4-COOH) = N[C@@H](Cc1ccc(C(=O)O)cc1)C(=O)O; Ala(4-thiazolyl) = N[C@@H](Cc1cscn1)C(=O)O; Bip = N[C@@H](Cc1ccc(-c2ccccc2)cc1)C(=O)O; dPhe(4-Br) = N[C@H](Cc1ccc(Br)cc1)C(=O)O; Phe(3-Me) = Cc1cccc(C[C@H](N)C(=O)O)c1; aIle = CC[C@@H](C)[C@H](N)C(=O)O; Cha = N[C@@H](CC1CCCCC1)C(=O)O; Cit = NC(=O)NCCC[C@H](N)C(=O)O; Ile(3ξ) = CCC(C)[C@H](N)C(=O)O; dNMeNle = CCCC[C@@H](NC)C(=O)O; Thr(3ξ) = CC(O)[C@H](N)C(=O)O; Carboxymethyl = O=C(O)C*; NMeA = CN[C@@H](C)C(=O)O; dAbu = CC[C@@H](N)C(=O)O; Dab = NCC[C@H](N)C(=O)O; Dap = NC[C@H](N)C(=O)O; ξV = CC(C)C(N)C(=O)O
Molecular target: T1, PE-labeled human PD-L1-Ig binding to Jurkat cell line over-expressing human PD-1 (Jurkat-PD-1) (Homo sapiens, UniProt Q15116)
T1 construct: expressed in transfected cells; host or cells: Jurkat
T1 sequence (Q15116 25-288): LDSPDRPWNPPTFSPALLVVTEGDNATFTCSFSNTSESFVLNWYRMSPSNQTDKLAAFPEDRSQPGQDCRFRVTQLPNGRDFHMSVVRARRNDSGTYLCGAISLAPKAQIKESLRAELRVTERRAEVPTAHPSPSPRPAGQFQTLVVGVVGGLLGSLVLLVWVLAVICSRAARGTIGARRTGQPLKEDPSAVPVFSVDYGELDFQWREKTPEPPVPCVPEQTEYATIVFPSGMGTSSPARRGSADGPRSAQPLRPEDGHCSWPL
Test: Jurkat-PD-1 Cell Binding High-Content Screening Assay (CBA): Method 1
Settings: Jurkat-hPD-1 cells, PE-labeled PD-L1-Ig 20 nM final; read-out: Jurkat HPDL1 PD1 IC50 (uM) (Method 1)

| SMILES | IC50 [µM] |
| --- | --- |
| Cc1cccc(C[C@@H]2NC(=O)[C@H](CC(=O)O)NC(=O)[C@H](Cc3ccc(O)cc3)NC(=O)[C@H](Cc3ccccc3)NC(=O)CSC[C@@H](C(=O)N[C@@H](C)C(N)=O)NC(=O)[C@H]([C@@H](C)O)NC(=O)[C@H](C(C)C)NC(=O)[C@H](CC(C)C)NC(=O)[C@H](CCCNC(=N)N)NC(=O)[C@@H](CC(C)C)NC(=O)[C@H](C)N(C)C(=O)[C@H](CCCNC(=N)N)NC(=O)[C@H](Cc3ccc(-c4ccccc4)cc3)NC(=O)[C@H](C(C)C)NC2=O)c1 [Compound 1125] ({CH2CO}-FYD[Phe(3-Me)]V[Bip]R[NMeA][dL]RLVTCA-NH2; thioether N-14) | 0.05 |
| Cc1cccc(C[C@@H]2NC(=O)[C@H](CC(=O)O)NC(=O)[C@H](Cc3ccc(OCC(=O)O)cc3)NC(=O)[C@H](CN)NC(=O)CSC[C@@H](C(N)=O)NC(=O)[C@H](CCC(=O)O)NC(=O)[C@H](C(C)C)NC(=O)[C@H](CC3CCCCC3)NC(=O)[C@H](CCN)NC(=O)[C@@H](CC(C)C)NC(=O)[C@H](C)N(C)C(=O)[C@H](Cc3ccc(OCC(=O)O)cc3)NC(=O)[C@H](Cc3ccc(-c4ccccc4)cc3)NC(=O)[C@H](Cc3ccc(OCC(=O)O)cc3)NC2=O)c1 [Compound 1651] ({CH2CO}-[Dap]Y(Carboxymethyl)D[Phe(3-Me)]Y(Carboxymethyl)[Bip]Y(Carboxymethyl)[NMeA][dL][Dab][Cha]VEC-NH2; thioether N-14) | 0.1 |
| CC(C)C[C@@H]1NC(=O)[C@H](CCCNC(=N)N)NC(=O)[C@@H](CC(C)C)NC(=O)[C@H](C)N(C)C(=O)[C@H](CCCNC(N)=O)NC(=O)[C@H](Cc2ccc(-c3ccccc3)cc2)NC(=O)[C@H](C(C)C)NC(=O)[C@H](Cc2c[nH]c3ccccc23)NC(=O)[C@H](CC(=O)O)NC(=O)[C@H](Cc2ccc(O)cc2)NC(=O)[C@H](CC(N)=O)NC(=O)CSC[C@@H](C(=O)N[C@@H](CCC(=O)O)C(N)=O)NC(=O)[C@H](CO)NC(=O)[C@H](C(C)C)NC1=O [Compound 1236] ({CH2CO}-NYDWV[Bip][Cit][NMeA][dL]RLVSCE-NH2; thioether N-14) | 0.11 |
| CC(C)C[C@@H]1NC(=O)[C@H](CCCNC(=N)N)NC(=O)[C@@H](Cc2ccccc2)NC(=O)[C@H](C)N(C)C(=O)[C@H](CCCNC(=N)N)NC(=O)[C@H](Cc2ccc(-c3ccccc3)cc2)NC(=O)[C@H](C(C)C)NC(=O)[C@H](Cc2c[nH]c3ccccc23)NC(=O)[C@H](CC(=O)O)NC(=O)[C@H](Cc2ccc(O)cc2)NC(=O)[C@H](CCC(N)=O)NC(=O)CSC[C@@H](C(=O)NCC(N)=O)NC(=O)[C@H](CO)NC(=O)[C@H](C(C)C)NC1=O [Compound 1023] ({CH2CO}-QYDWV[Bip]R[NMeA][dF]RLVSCG-NH2; thioether N-14) | 0.14 |
| CC(C)C[C@@H]1NC(=O)[C@H](CCCNC(=N)N)NC(=O)[C@@H](Cc2ccc(Br)cc2)NC(=O)[C@H](C)N(C)C(=O)[C@H](CCCNC(=N)N)NC(=O)[C@H](Cc2ccc(-c3ccccc3)cc2)NC(=O)[C@H](C(C)C)NC(=O)[C@H](Cc2c[nH]c3ccccc23)NC(=O)[C@H](CC(=O)O)NC(=O)[C@H](Cc2ccc(O)cc2)NC(=O)[C@H](Cc2ccccc2)NC(=O)CSC[C@@H](C(=O)N[C@@H](C)C(N)=O)NC(=O)[C@H]([C@@H](C)O)NC(=O)[C@H](C(C)C)NC1=O [Compound 1086] ({CH2CO}-FYDWV[Bip]R[NMeA][dPhe(4-Br)]RLVTCA-NH2; thioether N-14) | 0.69 |
| COc1ccc(C[C@@H]2NC(=O)[C@H](Cc3ccccc3)NC(=O)CSC[C@@H](C(=O)N[C@@H](C)C(N)=O)NC(=O)[C@H]([C@@H](C)O)NC(=O)[C@H](C(C)C)NC(=O)[C@H](CC(C)C)NC(=O)[C@H](CCCNC(=N)N)NC(=O)[C@@H](CC(C)C)NC(=O)[C@H](C)N(C)C(=O)[C@H](CCCNC(=N)N)NC(=O)[C@H](Cc3ccc(-c4ccccc4)cc3)NC(=O)[C@H](C(C)C)NC(=O)[C@H](Cc3c[nH]c4ccccc34)NC(=O)[C@H](CC(=O)O)NC2=O)cc1 [Compound 1091] ({CH2CO}-FY(Me)DWV[Bip]R[NMeA][dL]RLVTCA-NH2; thioether N-14) | 0.09 |
| CC(C)C[C@@H]1NC(=O)[C@H](CCN)NC(=O)[C@@H](CC(C)C)NC(=O)[C@H](C)N(C)C(=O)[C@H](Cc2cnc[nH]2)NC(=O)[C@H](Cc2ccc(-c3ccccc3)cc2)NC(=O)[C@H](C(C)C)NC(=O)[C@H](Cc2c[nH]c3ccccc23)NC(=O)[C@H](CC(=O)O)NC(=O)[C@H](Cc2cccc(C(F)(F)F)c2)NC(=O)[C@H](CN)NC(=O)CSC[C@@H](C(=O)N[C@@H](C)C(N)=O)NC(=O)[C@H]([C@@H](C)O)NC(=O)[C@H](C(C)C)NC1=O [Compound 1434] ({CH2CO}-[Dap][Phe(3-CF3)]DWV[Bip]H[NMeA][dL][Dab]LVTCA-NH2; thioether N-14) | 0.05 |

More lines, now with the values ahead:

| IC50 [µM] | SMILES |
| --- | --- |
| 0.05 | CC(C)C[C@@H]1NC(=O)[C@H](Cc2c[nH]c3ccccc23)NC(=O)[C@H](CC(=O)O)NC(=O)[C@H](Cc2ccc(O)cc2)NC(=O)[C@H](Cc2ccccc2)NC(=O)CSC[C@@H](C(=O)N[C@@H](C)C(N)=O)NC(=O)[C@H](CO)NC(=O)[C@H](C(C)C)NC(=O)[C@H](CC(C)C)NC(=O)[C@H](CC(N)=O)NC(=O)[C@@H](CC(C)C)NC(=O)[C@H](C)N(C)C(=O)[C@H](CCCNC(=N)N)NC(=O)[C@H](Cc2ccc(-c3ccccc3)cc2)NC1=O [Compound 1775] ({CH2CO}-FYDWL[Bip]R[NMeA][dL]NLVSCA-NH2; thioether N-14) |
| 0.04 | CC[C@H]1NC(=O)[C@H](C)N(C)C(=O)[C@H](C(C)C)NC(=O)[C@H](Cc2ccc(-c3ccccc3)cc2)NC(=O)[C@H](CC(C)C)NC(=O)[C@H](Cc2c[nH]c3ccccc23)NC(=O)[C@H](CC(=O)O)NC(=O)[C@H](Cc2ccc(O)cc2)NC(=O)[C@H](Cc2ccccc2)NC(=O)CSC[C@@H](C(=O)N[C@@H](C)C(N)=O)NC(=O)[C@H](CO)NC(=O)[C@H](C(C)C)NC(=O)[C@H](CC(C)C)NC(=O)[C@H](CC(N)=O)NC1=O [Compound 1763] ({CH2CO}-FYDWL[Bip]V[NMeA][dAbu]NLVSCA-NH2; thioether N-14) |
| 0.09 | Cc1cccc(C[C@@H]2NC(=O)[C@H](CC(=O)O)NC(=O)[C@H](Cc3ccc(C(=O)O)cc3)NC(=O)[C@H](Cc3ccc(OCC(=O)O)cc3)NC(=O)CSC[C@@H](C(N)=O)NC(=O)[C@H]([C@@H](C)O)NC(=O)[C@H](C(C)C)NC(=O)[C@H](CC(C)C)NC(=O)[C@H](CC(N)=O)NC(=O)[C@@H](CC(C)C)NC(=O)[C@H](C)N(C)C(=O)[C@H](C(C)C)NC(=O)[C@H](Cc3ccc(-c4ccccc4)cc3)NC(=O)[C@H](CC(C)C)NC2=O)c1 [Compound 1682] ({CH2CO}-Y(Carboxymethyl)[Phe(4-COOH)]D[Phe(3-Me)]L[Bip]V[NMeA][dL]NLVTC-NH2; thioether N-14) |
| 0.05 | CCCC[C@@H]1C(=O)N[C@@H](Cc2ccc(OCC(=O)O)cc2)C(=O)N[C@@H](CC(=O)O)C(=O)N[C@@H](Cc2cccc(C)c2)C(=O)N[C@@H](Cc2ccc(OCC(=O)O)cc2)C(=O)N[C@@H](Cc2ccc(-c3ccccc3)cc2)C(=O)N[C@@H](Cc2ccc(OCC(=O)O)cc2)C(=O)N(C)[C@@H](C)C(=O)N[C@H](CC(C)C)C(=O)N[C@@H](CCN)C(=O)N[C@@H](CC2CCCCC2)C(=O)N[C@@H](C(C)C)C(=O)N[C@@H](CO)C(=O)N[C@H](C(=O)N[C@@H](CCN)C(N)=O)CSCC(=O)N1C [Compound 1859] ({CH2CO}-[dNMeNle]Y(Carboxymethyl)D[Phe(3-Me)]Y(Carboxymethyl)[Bip]Y(Carboxymethyl)[NMeA][dL][Dab][Cha]VSC[Dab]-NH2; thioether N-14) |
| 0.06 | CC(=O)NCCCC[C@@H]1NC(=O)[C@H](Cc2ccc(-c3ccccc3)cc2)NC(=O)[C@H](Cc2ccc(O)cc2)NC(=O)[C@H](Cc2cccc(C)c2)NC(=O)[C@H](CC(=O)O)NC(=O)[C@H](Cc2ccc(OCC(=O)O)cc2)NC(=O)[C@H](C(C)O)NC(=O)CSC[C@@H](C(N)=O)NC(=O)[C@H](C(C)O)NC(=O)[C@H](C(C)C)NC(=O)[C@H](CC2CCCCC2)NC(=O)[C@H](CCN)NC(=O)[C@@H](CC(C)C)NC(=O)[C@H](C)N(C)C1=O (stereo partly drawn) [Compound 2255] ({CH2CO}-[Thr(3ξ)]Y(Carboxymethyl)D[Phe(3-Me)]Y[Bip]K(Ac)[NMeA][dL][Dab][Cha]V[Thr(3ξ)]C-NH2; thioether N-14) |
| 0.04 | CCC(C)[C@@H]1NC(=O)[C@H](Cc2ccc(-c3ccccc3)cc2)NC(=O)[C@H](CC(C)C)NC(=O)[C@H](Cc2c[nH]c3ccccc23)NC(=O)[C@H](CC(=O)O)NC(=O)[C@H](Cc2ccc(C(=O)O)cc2)NC(=O)[C@H](Cc2ccc(OCC(=O)O)cc2)NC(=O)CSC[C@@H](C(=O)N[C@@H](CC(N)=O)C(N)=O)NC(=O)[C@H](CCC(=O)O)NC(=O)[C@H](C(C)C)NC(=O)[C@H](CC2CCCCC2)NC(=O)[C@H](CCN)NC(=O)[C@@H](CC(C)C)NC(=O)[C@H](C)N(C)C1=O (stereo partly drawn) [Compound 1924] ({CH2CO}-Y(Carboxymethyl)[Phe(4-COOH)]DWL[Bip][Ile(3ξ)][NMeA][dL][Dab][Cha]VECN-NH2; thioether N-14) |
| 0.02 | CC(C)C[C@@H]1NC(=O)[C@H](Cc2c[nH]c3ccccc23)NC(=O)[C@H](CC(=O)O)NC(=O)[C@H](Cc2ccc(OCC(=O)O)cc2)NC(=O)[C@H](Cc2ccccc2)NC(=O)CSC[C@@H](C(=O)N[C@@H](C)C(N)=O)NC(=O)[C@H](CO)NC(=O)[C@H](C(C)C)NC(=O)[C@H](CC(C)C)NC(=O)[C@H](CC(N)=O)NC(=O)[C@@H](C)NC(=O)[C@H](C)N(C)C(=O)[C@H](C(C)C)NC(=O)[C@H](Cc2ccc(-c3ccccc3)cc2)NC1=O [Compound 1737] ({CH2CO}-FY(Carboxymethyl)DWL[Bip]V[NMeA][dA]NLVSCA-NH2; thioether N-14) |
| 0.24 | CC[C@@H](C)[C@@H]1NC(=O)[C@H](Cc2ccc(-c3ccccc3)cc2)NC(=O)[C@H](CC(C)C)NC(=O)[C@H](Cc2c[nH]c3ccccc23)NC(=O)[C@H](CC(=O)O)NC(=O)[C@H](Cc2ccc(C(=O)O)cc2)NC(=O)[C@H](Cc2ccc(OCC(=O)O)cc2)NC(=O)CSC[C@@H](C(=O)N[C@@H](CCCCN)C(N)=O)NC(=O)[C@H](Cc2cscn2)NC(=O)C(C(C)C)NC(=O)[C@H](CC(C)C)NC(=O)[C@H](CC(N)=O)NC(=O)[C@@H](CC(C)C)NC(=O)[C@H](C)N(C)C1=O (stereo partly drawn) [Compound 2107] ({CH2CO}-Y(Carboxymethyl)[Phe(4-COOH)]DWL[Bip][aIle][NMeA][dL]NL[ξV][Ala(4-thiazolyl)]CK-NH2; thioether N-14) |
